For one data set, the system named is CYP2D6. Further details: method as in PMID 25048520, PMID 22752008. The settings on record: human liver microsomes, competitive; read-out: Ki, CYP2D6-mediated dextromethorphan O-demethylation; cited from earlier work.
Another data set deals with T1, UGT1A1 (Homo sapiens, UniProt P22309).
T1 construct: ultrapooled human liver microsomes (0.2 mg/mL); from tissue; host or cells: human liver microsomes (ultrapooled)
T1 sequence (P22309 26-533): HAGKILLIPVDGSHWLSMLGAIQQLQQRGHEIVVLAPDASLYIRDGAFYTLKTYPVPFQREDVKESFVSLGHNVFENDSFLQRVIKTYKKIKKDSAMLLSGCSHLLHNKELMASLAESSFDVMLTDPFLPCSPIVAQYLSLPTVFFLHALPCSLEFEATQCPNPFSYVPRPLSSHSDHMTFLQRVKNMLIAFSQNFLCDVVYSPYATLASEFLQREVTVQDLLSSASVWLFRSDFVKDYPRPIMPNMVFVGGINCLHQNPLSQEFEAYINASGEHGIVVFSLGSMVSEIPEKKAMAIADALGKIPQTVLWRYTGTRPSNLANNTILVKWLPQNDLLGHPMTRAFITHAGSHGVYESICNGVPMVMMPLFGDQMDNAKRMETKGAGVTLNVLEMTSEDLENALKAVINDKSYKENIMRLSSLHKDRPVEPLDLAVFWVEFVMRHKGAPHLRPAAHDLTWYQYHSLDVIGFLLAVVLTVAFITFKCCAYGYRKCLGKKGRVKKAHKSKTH
Kind of data set: Inhibition of UGT1A1-catalyzed SN-38 glucuronidation in ultrapooled human liver microsomes. Type of data set: in vitro ADME. The protocol: The inhibitory potential of mertansine on UGT1A1, UGT1A3, UGT1A4, UGT1A6, UGT1A9, and UGT2B7 activities was evaluated using liquid chromatography–tandem mass spectrometry (LC-MS/MS) with a cocktail of UGT substrates and ultrapooled human liver microsomes. Each incubation mixture was prepared to a final volume of 100 μL as follows: ultrapooled human liver microsomes (0.2 mg/mL), 5 mM UDPGA, 10 mM magnesium chloride, alamethicin (25 μg/mL), 50 mM Tris buffer (pH 7.4), various concentrations of mertansine in methanol (final concentrations of 0.01–50 μM), and the cocktail sets of UGT enzyme-specific substrates. Two cocktail sets were used: set A contained 0.5 μM SN-38 for UGT1A1, 2 μM chenodeoxycholic acid for UGT1A3, and 0.5 μM trifluoperazine for UGT1A4; and set B contained 1 μM N-acetylserotonin for UGT1A6, 0.2 μM mycophenolic acid for UGT1A9, and 1 μM naloxone for UGT2B7. The reactions were initiated by adding UDPGA and incubated in a shaking water bath for 60 min at 37 °C. […] Next, 50 μL of each supernatant of sets A and B was mixed, and aliquots (5 μL) were analyzed using LC-MS/MS. […]
The LC-MS/MS system was comprised of an Agilent 6495 triple quadrupole mass spectrometer coupled with an Agilent 1290 Infinity system (Agilent Technologies, Wilmington, DE, USA). […] The electrospray ionization (ESI) source settings in both positive and negative ion modes were as follows: gas temperature, 200 °C; gas flow, 14 L/min; nebulizer, 40 psi; sheath gas temperature, 380 °C; sheath gas flow, 11 L/min; capillary voltage, 4500 V; and nozzle voltage, 500 V. Each metabolite was quantified via selected reaction monitoring in the negative ion mode (chenodeoxycholic acid 24-acyl-β-glucuronide, m/z 567.1 to 391.2; mycophenolic acid β-D-glucuronide, m/z 495.0 to 319.0; propofol glucuronide (IS), m/z 353.0 to 177.0) and in the positive ion mode (SN-38 glucuronide, m/z 568.9 to 392.9; trifluoperazine N-β-D-glucuronide, m/z 583.9 to 407.9; N-acetylserotonin β-D-glucuronide, m/z 394.0 to 219.0; naloxone 3-β-D-glucuronide, m/z 503.9 to 309.9; meloxicam (IS), m/z 351.9 to 115.0). […]

In another data set the test system is CYP2B6 mRNA. Nature of the data set: CYP2B6 mRNA level in human hepatocytes after 48 h treatment (RT-PCR). Type of data set: cell-based. The note with it: Mean ± SD of three human hepatocyte lots, 48 h, 1.25–2500 nM, read-out: IC50, suppression of CYP2B6 mRNA expression. An excerpt: (§1) 12.5 (Systat Software, Inc.; San Jose, CA, USA). […] 1.1 (Systat Software, Inc.).

Data set [1] concerns CYP2B6 mRNA (suppression of expression). Described as above. It counts as cell-based. The note with it: 1.25–2500 nM.
Text: as §1

Another data set addresses T2, UGT1A9 (Homo sapiens, UniProt O60656).
T2 construct: ultrapooled human liver microsomes (0.2 mg/mL); from tissue; host or cells: human liver microsomes (ultrapooled)
Kind of data set: Inhibition of UGT1A9-catalyzed mycophenolic acid β-D-glucuronidation in ultrapooled human liver microsomes. Type of data set: in vitro ADME. The protocol:
The inhibitory potential of mertansine on UGT1A1, UGT1A3, UGT1A4, UGT1A6, UGT1A9, and UGT2B7 activities was evaluated using liquid chromatography–tandem mass spectrometry (LC-MS/MS) with a cocktail of UGT substrates and ultrapooled human liver microsomes. Each incubation mixture was prepared to a final volume of 100 μL as follows: ultrapooled human liver microsomes (0.2 mg/mL), 5 mM UDPGA, 10 mM magnesium chloride, alamethicin (25 μg/mL), 50 mM Tris buffer (pH 7.4), various concentrations of mertansine in methanol (final concentrations of 0.01–50 μM), and the cocktail sets of UGT enzyme-specific substrates. Two cocktail sets were used: set A contained 0.5 μM SN-38 for UGT1A1, 2 μM chenodeoxycholic acid for UGT1A3, and 0.5 μM trifluoperazine for UGT1A4; and set B contained 1 μM N-acetylserotonin for UGT1A6, 0.2 μM mycophenolic acid for UGT1A9, and 1 μM naloxone for UGT2B7. The reactions were initiated by adding UDPGA and incubated in a shaking water bath for 60 min at 37 °C. Reactions were terminated by adding 50 μL of ice-cold acetonitrile containing internal standards (IS, propofol glucuronide for set A and meloxicam for set B). Incubation mixtures were centrifuged at 13,000 g for 8 min at 4 °C. Next, 50 μL of each supernatant of sets A and B was mixed, and aliquots (5 μL) were analyzed using LC-MS/MS. […]

The next data set has as its system UGT1A1 mRNA. Nature of the data set: UGT1A1 mRNA level in human hepatocytes after 48 h treatment (RT-PCR). The settings on record: human, IC50, suppression of UGT1A1 mRNA expression, 1.25–2500 nM.
The mark [2] stands for this setting: human hepatocytes Lot 319, 48 h.
Setting [3] is: human hepatocytes Lot 321, 48 h.
[4] abbreviates: human hepatocytes Lot 361, 48 h.

Entries after “also recorded” stand apart in the source; their conditions may differ.

T2 sequence (O60656 26-530): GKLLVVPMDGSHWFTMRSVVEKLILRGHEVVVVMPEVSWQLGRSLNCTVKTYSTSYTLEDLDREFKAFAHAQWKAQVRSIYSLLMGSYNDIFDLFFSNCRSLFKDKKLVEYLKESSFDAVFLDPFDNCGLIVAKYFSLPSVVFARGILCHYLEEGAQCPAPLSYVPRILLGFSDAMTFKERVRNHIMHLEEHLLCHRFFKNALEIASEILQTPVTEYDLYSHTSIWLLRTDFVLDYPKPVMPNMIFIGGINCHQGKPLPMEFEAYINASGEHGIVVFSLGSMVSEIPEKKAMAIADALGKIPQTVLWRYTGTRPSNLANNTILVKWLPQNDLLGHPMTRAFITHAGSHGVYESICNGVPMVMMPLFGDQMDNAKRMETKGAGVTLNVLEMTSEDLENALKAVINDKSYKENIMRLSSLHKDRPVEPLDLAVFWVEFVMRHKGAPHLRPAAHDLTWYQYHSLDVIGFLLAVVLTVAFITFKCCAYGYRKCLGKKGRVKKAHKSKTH

For `COc1cc2cc(c1Cl)N(C)C(=O)CC(OC(=O)C(C)N(C)C(=O)CCS)C1(C)OC1C(C)C1CC(O)(NC(=O)O1)C(OC)C=CC=C(C)C2` (centres unmarked) [mertansine, Mertansine], the inhibitory constant (Ki) was 14000 nM with CYP2D6 and 13500 nM at UGT1A1 (human liver microsomes, SN-38 0.2–2 µM). Moreover, the “Inhibition Mode, UGT1A1” value on UGT1A1 (human liver microsomes, Dixon plot) was “noncompetitively inhibited; also recorded: noncompetitive inhibitor”. At UGT1A1 (ultrapooled human liver microsomes, 0.5 µM SN-38 (cocktail)), this molecule had an IC50 of 16200 nM. The IC50 at 48 h in the data set with CYP2B6 mRNA came to 36.8 ± 18.3 nM; in data set [1] (setting [2]) it was 25 nM; in data set [1] (setting [3]), 57.8 nM; in data set [1] (setting [4]), 27.6 nM; with UGT1A1 mRNA (Mean ± SD of three human hepatocyte lots, 48 h) it was 857 ± 782 nM; in the data set with UGT1A1 mRNA (setting [2]), 784 nM. Also, the values for the IC50 at 48 h in the data set on UGT1A1 mRNA (setting [3]) and in the data set with UGT1A1 mRNA (setting [4]) were 113 nM and 1670 nM, respectively. Also, the “Inhibition of UGT1A9 enzyme activity” value at UGT1A9 (human liver microsomes, mertansine at 50 µM) is recorded as “no inhibition; also recorded: negligibly inhibited”. Further, on UGT1A9 (ultrapooled human liver microsomes, 0.2 µM mycophenolic acid (cocktail)), the “IC50, mycophenolic acid β-D-glucuronidation (UGT1A9)” value was “No inhibition”.

Source of the values: publication PMC7150891, “Mertansine Inhibits mRNA Expression and Enzyme Activities of Cytochrome P450s and Uridine 5′-Diphospho-Glucuronosyltransferases in Human Hepatocytes and Liver Microsomes” (Pharmaceutics, 2020).
